Data on four compounds can be found in patent US6077843A, “Aqueous suspensions of 9-hydroxyrisperidone fatty acid esters” (Janssen Pharmaceutica, N.V., priority 1996, dated 2000).

Data set [1] is described as follows: Particle size distribution of the milled and sieved ester. Format: physicochemical. The text has this:
# The ester was milled and sieved using appropriate nominal standard test sieves, yielding active ingredient having a particle size distribution as follows: […]

A short description of data set [2]: Pharmacokinetic investigations on ester depot formulations (described in words). Format: in vivo. The settings on record: versus other C10-20 alkanoic acid esters.
The nature of data set [3]: Systemic and local tolerance of depot formulations (described in words). Format: in vivo.
The conditions of data set [4]: compared with risperidone; cited from earlier work.
The conditions of data set [5]: cited from earlier work.
The conditions of data set [6]: compared with 9-hydroxy-risperidone; cited from earlier work.
For data set [7] the following is noted: cited from earlier work. The source holds these as a separate data set.
For data set [8] the following is noted: pamoate salt; cited from earlier work.

In the case of `CCCCCCCCCCCCCCCC(=O)OC1CCCn2c1nc(C)c(CCN1CCC(c3noc4cc(F)ccc34)CC1)c2=O` (stereo not shown) [9-hydroxyrisperidone palmitate ester], the “particle size, 10% of the particles (by volume)” value in data set [1] (10% by volume) is at least 15 μm. Further, the “particle size, 50% of the particles (by volume)” value in data set [1] (50% by volume) is given as at least 5 μm. In addition, in data set [1] (90% by volume), the “particle size, 90% of the particles (by volume)” value is listed as at least 0.5 μm. Besides, the “pharmacokinetic point of view” value in data set [2] was “superior ester”. In addition, the “difference between small or large prodrug particles” value in data set [3] (suspensions of the palmitate ester in sesame oil) is listed as “No significant difference between small or large prodrug particles”. Moreover, in data set [3] (versus other C10-20 alkanoic acid esters), the “tolerance point of view” value was “superior ester”.

`Cc1nc2n(c(=O)c1CCN1CCC(c3noc4cc(F)ccc34)CC1)CCCC2O` (stereo not shown) [9-hydroxyrisperidone]: the “pharmacological profile and potency” value in data set [4] is on record as “comparable with that of the parent drug risperidone”. Further, the elimination half-life result in data set [5] (compared with risperidone) is on record as “longer elimination half-life”.

As to `Cc1nc2n(c(=O)c1CCN1CCC(c3noc4cc(F)ccc34)CC1)CCCC2` [Risperidone, 3-[2-[4-(6-fluoro-1,2-benzisoxazol-3-yl)-1-piperidinyl]ethyl]-6,7,8,9-tetrahydro-2-methyl-4H-pyridol[1,2-a]pyrimidin-4-one], in data set [5] (in vivo), the metabolism result was “metabolized to 9-hydroxyrisperidone”. In data set [6], the “distribution to and elimination from the brain tissues” value is reported as “more rapidly than its metabolite 9-hydroxy-risperidone”. In addition, the therapeutic index entry in data set [7] (in vivo) is recorded as “relatively narrow therapeutic index”. In data set [7] (overdosage), the “undesirable side effects on overdosage” value was “most notably extra pyramidal syndrome (EPS) and to a lesser extent hypotension”.

For `Cc1nc2n(c(=O)c1CCN1CCC(c3noc4cc(F)ccc34)CC1)CCCC2` [risperidone pamoate], in data set [5] (suspension, WO-94/25460), the initial plasma levels entry is on record as “relatively high initial plasma levels”, the “mean duration of action” value is on record as “inadequate mean duration of action” and the “release of the active ingredient” value is listed as “too rapid”. Moreover, in data set [8], the water solubility result is recorded as “poorly water-soluble”.
